ChEMBL document CHEMBL3352310, “A perspective on targeting non-structural proteins to combat neglected tropical diseases: Dengue, West Nile and Chikungunya viruses” (Eur J Med Chem, 2014)
Peptide text beside a SMILES is read from it. * marks the point of attachment. Bz = O=C(c1ccccc1)*

Assays:
[1] = test system: Dengue virus; assay: Antiviral activity against Dengue virus assessed as inhibition of viral RNA replication; type: functional, organism-based
[2] = molecular target: T1, Genome polyprotein (dengue virus type 2, UniProt Q91H74); assay: Inhibition of dengue virus-1 NS2B-NS3 protease; design: species or system dengue virus type 1
[3] = molecular target: T1, Genome polyprotein; assay: Inhibition of dengue virus-3 NS2B-NS3 protease; design: species or system dengue virus type 3
[4] = molecular target: T1, Genome polyprotein; assay: Inhibition of dengue virus-4 NS2B-NS3 protease; design: species or system dengue virus type 4
[5] = molecular target: Genome polyprotein (dengue virus type 2, UniProt P12823); assay: Inhibition of dengue virus-2 NS2B-NS3 protease
[6] = test system: dengue virus type 3; assay: Antiviral activity against Dengue virus 3; type: functional, organism-based
[7] = test system: dengue virus type 2; assay: Antiviral activity against Dengue virus 2; type: functional, organism-based
[8] = test system: dengue virus type 1; assay: Antiviral activity against Dengue virus 1; type: functional, organism-based
[9] = test system: dengue virus type 4; assay: Antiviral activity against Dengue virus 4; type: functional, organism-based
[10] = test system: Dengue virus; assay: Antiviral activity against Dengue virus assessed as inhibition of viral replication; type: functional, organism-based
[11] = molecular target: T2, Genome polyprotein (West Nile virus, UniProt P06935); assay: Inhibition of West Nile virus NS2B-NS3 protease
[12] = molecular target: T1, Genome polyprotein; assay: Inhibition of dengue virus NS2B-NS3 protease
[13] = molecular target: T2, Genome polyprotein; assay: Non-competitive inhibition of West Nile virus NS2B-NS3 protease
[14] = Inhibition of Dengue virus-3 2'-O-methyltransferase; design: species or system dengue virus type 3
[15] = Inhibition of Dengue virus-3 N7-methyltransferase; design: species or system dengue virus type 3
[16] = Inhibition of Dengue virus RNA-directed RNA polymerase NS5
[17] = test system: Dengue virus; assay: Antiviral activity against Dengue virus; type: functional, organism-based
[18] = test system: Chikungunya virus; assay: Antiviral activity against Chikungunya virus assessed as inhibition of viral replication; type: functional

Question: Which EC50 [1] does the source give for `CN1CCN(CCOc2cc(OC3CCOCC3)c3c(Nc4c(Cl)ccc5c4OCO5)ncnc3c2)CC1` [SARACATINIB] here?
Answer: Its EC50 is 1600 nM.

Question: Which IC50 [2] does the source give for `N=C(N)Nc1ccc(O[C@H]2C[C@@H](Oc3ccc(NC(=N)N)cc3NC(=N)N)[C@H](NC(=N)N)C[C@@H]2NC(=N)N)c(NC(=N)N)c1` here?
Answer: The IC50 was 1000 nM.

Question: What about the IC50 [3] of the same compound?
Answer: The IC50 was 1000 nM.

Question: And the IC50 [4]?
Answer: Its IC50 is 1000 nM.

Question: What about the IC50 [5] of the same compound?
Answer: Its IC50 is 1000 nM.

Question: What does the source list for `O=C1c2c(O)ccc([N+](=O)[O-])c2C(=O)c2c([N+](=O)[O-])ccc(O)c21`?
Answer: EC50 [6]: 3080 nM; EC50 [7]: 440 nM; EC50 [8]: 5960 nM; EC50 [9]: 880 nM

Question: Which IC50 [5] does the source give for `N#Cc1ccc(OC(=O)c2ccc(NC(=N)N)cc2)cc1` here?
Answer: The IC50 was 37900 nM.

Question: What about the Ki [5] of the same compound?
Answer: Its Ki is 31100 nM.

Question: For `C[C@@H]1O[C@@H](OC[C@H]2O[C@@H](Oc3c(-c4ccc(O)c(O)c4)oc4cc(O)cc(O)c4c3=O)[C@H](O)[C@@H](O)[C@@H]2O)[C@H](O)[C@H](O)[C@H]1O` [RUTIN], which IC50 [10] is on record?
Answer: The IC50 was 1700 nM.

Question: Which IC50 [11] does the source give for `N=C(N)NCCC[C@H](NC(=O)[C@H](CCCCN)NC(=O)[C@H](CCCCN)NC(=O)c1ccccc1)C(=O)O` (Bz-Lys-Lys-Arg-OH) here?
Answer: Its IC50 is 420 nM.

Question: Which IC50 [12] does the source give for `Cc1ccc(C(NN=C(N)N)[PH](=O)O)cc1` (stereo not drawn) here?
Answer: Its IC50 is 14000 nM.

Question: With `CCCSc1nnc(N2C(=O)C(O)=C(C(=O)c3ccc(Cl)cc3)C2c2ccc(Cl)cc2)s1` (stereo not drawn) as the compound, how does the IC50 [13] read?
Answer: Its IC50 is 2200 nM.

Question: Which IC50 [10] does the source give for `O=c1c(O)c(-c2ccc(O[C@@H]3O[C@H](CO)[C@@H](O)[C@H](O)[C@H]3O)c(O)c2)oc2cc(O)cc(O)c12` [SPIRAEOSIDE] here?
Answer: The IC50 was 1700 nM.

Question: For `COc1ccc(-c2nnc(C(Cc3ccccc3)n3sc4ccccc4c3=O)o2)cc1` (stereo not drawn), which IC50 [12] is on record?
Answer: Its IC50 is 3750 nM.

Question: Which results are given for `NC(CCSC[C@H]1O[C@@H](n2ccc3c(NCc4cccc(Cl)c4)ncnc32)C(O)C1O)C(=O)O` (stereo partly drawn)?
Answer: Ki [14]: 170 nM; Ki [15]: 820 nM

Question: For `O=c1cc(-c2ccc(Oc3c(O)cc4occ(-c5ccc(O)cc5)c(=O)c4c3O)cc2)oc2cc(O)cc(O)c12`, which IC50 [16] is on record?
Answer: Its IC50 is 260 nM.

Question: Which IC50 [13] does the source give for `COc1cc2c(cc1OC)-c1cc3ccc(OC)c(OC)c3c[n+]1CC2` [PALMITINE] here?
Answer: Its IC50 is 96000 nM.

Question: For `C=C(C)[C@@H]1CC[C@]2(C(=O)O)CC[C@]3(C)[C@H](CC[C@@H]4[C@@]5(C)CC[C@H](O)C(C)(C)[C@@H]5CC[C@]43C)[C@@H]12` [BETULINIC ACID], which IC50 [10] is on record?
Answer: Its IC50 is 1700 nM.

Question: For `Cc1nc(Nc2ncc(C(=O)Nc3c(C)cccc3Cl)s2)cc(N2CCN(CCO)CC2)n1` [DASATINIB], which EC50 [1] is on record?
Answer: The EC50 was 110 nM.

Question: With `N=C(N)NCCC[C@H](NC(=O)[C@H](CCCCN)NC(=O)[C@H](CCCCN)NC(=O)C1CC1)C(=O)O` as the compound, how does the IC50 [11] read?
Answer: Its IC50 is 380 nM.

Question: Which IC50 [13] does the source give for `Cc1ccc2c(c1)-c1c(=O)nc(SCc3ccccc3)[nH][n+]1C(c1ccc(Cl)cc1)N2` (stereo not drawn) here?
Answer: Its IC50 is 5410 nM.

Question: For `NC(=O)c1ncn([C@@H]2O[C@H](CO)[C@@H](O)[C@H]2O)n1` [RIBAVIRIN], which EC50 [17] is on record?
Answer: The EC50 was 49000 nM.

Question: With `CC(C)C[C@@H]1NC(=O)[C@H](CCCN)NC(=O)[C@H](C(C)C)NC(=O)[C@H](Cc2ccc(O)cc2)N[C@@H](CCC(=O)O)C(=O)N[C@@H](CC(N)=O)C(=O)[C@@H](Cc2ccccc2)NC(=O)[C@H](Cc2ccccc2)NC(=O)[C@@H]2CCCN2C(=O)[C@@H](Cc2ccccc2)NC1=O` as the compound, how does the Ki [11] read?
Answer: Its Ki is 2000 nM.

Question: Which IC50 [5] does the source give for `N=C(N)Nc1ccc(OC(=O)c2ccc(NC(=N)N)cc2)cc1` here?
Answer: Its IC50 is 7700 nM.

Question: What about the Ki [5] of the same compound?
Answer: The Ki was 2000 nM.

Question: Which Ki [2] does the source give for `NC(=O)[C@H](Cc1c[nH]c2ccccc12)NC(=O)[C@H](CS)NC(=O)[C@H](Cc1ccc(O)cc1)NC(=O)[C@@H](N)Cc1c[nH]c2ccccc12` (H-WYCW-NH2) here?
Answer: The Ki was 4200 nM.

Question: And the Ki [3]?
Answer: The Ki was 24400 nM.

Question: What about the Ki [4] of the same compound?
Answer: Its Ki is 11200 nM.

Question: And the Ki [5]?
Answer: Its Ki is 4800 nM.

Question: With `Cc1cc(C)c2c(c1)OC(c1ccc(N(C)C)cc1)CC2=O` (stereo not drawn) as the compound, how does the IC50 [12] read?
Answer: The IC50 was 121000 nM.

Question: With `COc1ccc(-c2coc3c(-c4cc(-c5cc(=O)c6c(O)cc(O)cc6o5)ccc4O)c(O)cc(O)c3c2=O)cc1` as the compound, how does the IC50 [16] read?
Answer: The IC50 was 750 nM.

Question: For `O=c1c(OC2O[C@H](CO)[C@@H](O)[C@H](O)[C@H]2O)c(-c2ccc(OC3O[C@H](CO)[C@@H](O)[C@H](O)[C@H]3O)c(O)c2)oc2cc(O)cc(O)c12` (stereo partly drawn), which IC50 [10] is on record?
Answer: The IC50 was 1700 nM.

Question: For `Oc1c(C(Nc2nccs2)c2cccc(OCc3ccccc3)c2)ccc2cccnc12` (stereo not drawn), which IC50 [11] is on record?
Answer: The IC50 was 2010 nM.

Question: For `CCOc1ccc(/C=N/NC(=O)/C=C/c2ccc(C(C)(C)C)cc2)cc1OCC`, which IC50 [18] is on record?
Answer: Its IC50 is 3200 nM.

Question: For `CCc1ccc(NC(=O)CSc2nc3ccc(NC(=O)CSc4nnc(-c5ccccc5)n4C)cc3s2)cc1`, which IC50 [11] is on record?
Answer: The IC50 was 3400 nM.

Question: For `O=c1cc(-c2ccccc2)oc2ccc(-c3cn[nH]n3)cc12`, which IC50 [12] is on record?
Answer: Its IC50 is 69000 nM.

Question: With `O=c1c(O[C@@H]2O[C@@H](CO)[C@H](O)[C@H]2O)c(-c2ccc(O)c(O)c2)oc2cc(O)cc(O)c12` [AVICULARIN] as the compound, how does the IC50 [10] read?
Answer: The IC50 was 1700 nM.

Question: What does the source list for `Cc1ccc(S(=O)(=O)Nc2cc(SCC(=O)O)c(O)c3ccccc23)cc1[N+](=O)[O-]`?
Answer: EC50 [6]: 2430 nM; EC50 [7]: 980 nM; EC50 [8]: 970 nM; EC50 [9]: 740 nM

Question: With `O=c1c(O[C@@H]2O[C@H](CO)[C@H](O)[C@H](O)[C@H]2O)c(-c2ccc(O)c(O)c2)oc2cc(O)cc(O)c12` [HYPEROSIDE] as the compound, how does the IC50 [10] read?
Answer: Its IC50 is 1700 nM.

Question: For `C[C@@H]1O[C@@H](Oc2c(-c3ccc(O)c(O)c3)oc3cc(O)cc(O)c3c2=O)[C@H](O)[C@H](O)[C@H]1O` [QUERCITRIN], which IC50 [10] is on record?
Answer: The IC50 was 1700 nM.

Question: With `N=C(N)N[C@H]1CC[C@H](CNC(=O)[C@H](CCCCN)NC(=O)[C@H](CCCCN)NC(=O)Cc2ccc(Cl)c(Cl)c2)CC1` as the compound, how does the Ki [11] read?
Answer: The Ki was 130 nM.
